According to ChEMBL document CHEMBL1201862, “PubChem BioAssay data set” (2004):
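Results reflect a 48-hour exposure of cells in 96-well plates to compound at five concentrations. Abbreviation: GI50, concentration required for 50% inhibition of growth.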 Active and inactive are the calls of the source. No stated cut-off is given here; in the data, active = GI50 up to about 1.1 µM and inactive = higher.

How the values were obtained:
Test in all cases: NCI-60 cell line screen, 48 h
T47D = tested on: T47D
COLO 205 = tested on: COLO 205
PC-3 = tested on: PC-3
A498 = tested on: A498
SK-OV-3 = tested on: SK-OV-3
HL-60 = tested on: HL-60
RPMI-8226 = tested on: RPMI-8226
RXF 393 = tested on: RXF 393
SNB-75 = tested on: SNB-75
IGROV-1 = tested on: IGROV-1
HOP-62 = tested on: HOP-62
786-0 = tested on: 786-0
SK-MEL-5 = tested on: SK-MEL-5
NCI-H23 = tested on: NCI-H23
SK-MEL-2 = tested on: SK-MEL-2
HOP-92 = tested on: HOP-92
OVCAR-8 = tested on: OVCAR-8
DU-145 = tested on: DU-145
UACC-257 = tested on: UACC-257
CAKI-1 = tested on: CAKI-1
CCRF-CEM = tested on: CCRF-CEM
MOLT-4 = tested on: MOLT-4
SNB-19 = tested on: SNB-19
SR = tested on: SR
SF-295 = tested on: SF-295
MDA-MB-435 = tested on: MDA-MB-435
K562 = tested on: K562
SN12C = tested on: SN12C
BT-549 = tested on: BT-549
KM12 = tested on: KM12
OVCAR-4 = tested on: OVCAR-4
UACC-62 = tested on: UACC-62
UO-31 = tested on: UO-31
TK-10 = tested on: TK-10
LOX IMVI = tested on: LOX IMVI
Hs-578T = tested on: Hs-578T
ACHN = tested on: ACHN
NCI-H460 = tested on: NCI-H460
MDA-MB-231 = tested on: MDA-MB-231
OVCAR-3 = tested on: OVCAR-3
HCT-15 = tested on: HCT-15
Malme-3M = tested on: Malme-3M
NCI/ADR-RES = tested on: NCI/ADR-RES
MDA-N = tested on: MDA-N
SK-MEL-28 = tested on: SK-MEL-28
HT-29 = tested on: HT-29
MCF7 = tested on: MCF7
SW-620 = tested on: SW-620
OVCAR-5 = tested on: OVCAR-5
U-251 = tested on: U-251
SF-539 = tested on: SF-539
M14 = tested on: M14
SF-268 = tested on: SF-268
A549 = tested on: A549
NCI-H226 = tested on: NCI-H226
HCT-116 = tested on: HCT-116
NCI-H522 = tested on: NCI-H522
EKVX = tested on: EKVX
HCC 2998 = tested on: HCC 2998

CC1(C)OC(C(=O)Nc2cc3c4ccccc4ccc3c3ccccc23)C(C(=O)N2CCCCC2)O1 (configuration not stated)
GI50 (T47D): 6.62 µM (inactive)
GI50 (COLO 205): 0.966 µM (active)
GI50 (PC-3): 3.33 µM (inactive)
GI50 (A498): > 23.9 µM (inactive)
GI50 (SK-OV-3): 20.6 µM (inactive)
GI50 (HL-60): 1.41 µM (inactive)
GI50 (RPMI-8226): 0.592 µM (active)
GI50 (RXF 393): 1.17 µM (inactive)
GI50 (SNB-75): 2.74 µM (inactive)
GI50 (IGROV-1): 1.32 µM (inactive)
GI50 (HOP-62): 17.6 µM (inactive)
GI50 (786-0): 1.77 µM (inactive)
GI50 (SK-MEL-5): 1.98 µM (inactive)
GI50 (NCI-H23): > 21.4 µM (inactive)
GI50 (SK-MEL-2): 9.18 µM (inactive)
GI50 (HOP-92): 31.6 µM (inactive)
GI50 (OVCAR-8): 0.957 µM (active)
GI50 (DU-145): 5.97 µM (inactive)
GI50 (UACC-257): > 25.1 µM (inactive)
GI50 (CAKI-1): 0.493 µM (active)
GI50 (CCRF-CEM): 0.537 µM (active)
GI50 (MOLT-4): 0.574 µM (active)
GI50 (SNB-19): 4.2 µM (inactive)
GI50 (SR): 0.0964 µM (active)
GI50 (SF-295): 1.32 µM (inactive)
GI50 (MDA-MB-435): 2.7 µM (inactive)
GI50 (K562): 0.619 µM (active)
GI50 (SN12C): 9.18 µM (inactive)
GI50 (BT-549): 47 µM (inactive)
GI50 (KM12): 2.18 µM (inactive)
GI50 (OVCAR-4): 21.5 µM (inactive)
GI50 (UACC-62): 1.17 µM (inactive)
GI50 (UO-31): 2.17 µM (inactive)
GI50 (TK-10): > 22.6 µM (inactive)
GI50 (LOX IMVI): 0.344 µM (active)
GI50 (Hs-578T): 3.72 µM (inactive)
GI50 (ACHN): 0.897 µM (active)
GI50 (NCI-H460): 0.385 µM (active)
GI50 (MDA-MB-231): > 38.9 µM (inactive)
GI50 (OVCAR-3): 2.29 µM (inactive)
GI50 (HCT-15): 0.419 µM
GI50 (Malme-3M): > 100 µM (inactive)
GI50 (NCI/ADR-RES): 2.08 µM (inactive)
GI50 (MDA-N): 5.94 µM (inactive)
GI50 (SK-MEL-28): > 39.4 µM (inactive)
GI50 (HT-29): 0.74 µM (active)
GI50 (MCF7): 1.16 µM (inactive)
GI50 (SW-620): 0.813 µM (active)
GI50 (OVCAR-5): > 100 µM (inactive)
GI50 (U-251): 1.14 µM (inactive)
GI50 (SF-539): 0.587 µM (active)
GI50 (M14): 3.56 µM (inactive)
GI50 (SF-268): 2.43 µM (inactive)
GI50 (A549): 1.04 µM (active)
GI50 (NCI-H226): 60.4 µM (inactive)
GI50 (HCT-116): 0.507 µM (active)
GI50 (NCI-H522): 0.863 µM (active)
GI50 (EKVX): > 54.8 µM (inactive)
GI50 (HCC 2998): > 74.1 µM (inactive)

C=C(C)C(=O)OC1CC2(C)OC2CC(OC(C)=O)/C(C)=C/C2OC(=O)C(=C)C21 (configuration not stated)
GI50 (T47D): 3.48 µM (inactive)
GI50 (COLO 205): 1.52 µM (inactive)
GI50 (PC-3): 9.08 µM (inactive)
GI50 (A498): 12.9 µM (inactive)
GI50 (SK-OV-3): 29 µM (inactive)
GI50 (HL-60): 0.207 µM (active)
GI50 (RPMI-8226): 0.349 µM (active)
GI50 (RXF 393): 2.04 µM (inactive)
GI50 (SNB-75): 15.5 µM (inactive)
GI50 (IGROV-1): 4.17 µM (inactive)
GI50 (HOP-62): 13.1 µM (inactive)
GI50 (786-0): 2.22 µM (inactive)
GI50 (SK-MEL-5): 8.2 µM (inactive)
GI50 (NCI-H23): 2.76 µM (inactive)
GI50 (SK-MEL-2): 5.37 µM (inactive)
GI50 (HOP-92): 3.64 µM (inactive)
GI50 (OVCAR-8): 2.03 µM (inactive)
GI50 (DU-145): 2.13 µM (inactive)
GI50 (UACC-257): 6.5 µM (inactive)
GI50 (CAKI-1): 2.53 µM (inactive)
GI50 (CCRF-CEM): 0.0895 µM (active)
GI50 (MOLT-4): 0.441 µM (active)
GI50 (SNB-19): 15.2 µM (inactive)
GI50 (SR): 1.08 µM (active)
GI50 (SF-295): 16.2 µM (inactive)
GI50 (MDA-MB-435): 1.18 µM (inactive)
GI50 (K562): 0.56 µM (active)
GI50 (SN12C): 2.52 µM (inactive)
GI50 (BT-549): 1.09 µM (active)
GI50 (KM12): 11.2 µM (inactive)
GI50 (OVCAR-4): 9.48 µM (inactive)
GI50 (UACC-62): 4.57 µM (inactive)
GI50 (UO-31): 2.68 µM (inactive)
GI50 (TK-10): 3.45 µM (inactive)
GI50 (LOX IMVI): 2.73 µM (inactive)
GI50 (Hs-578T): 2.3 µM (inactive)
GI50 (ACHN): 1.49 µM (inactive)
GI50 (NCI-H460): 1.73 µM (inactive)
GI50 (MDA-MB-231): 6.49 µM (inactive)
GI50 (OVCAR-3): 2.26 µM (inactive)
GI50 (HCT-15): 0.566 µM
GI50 (Malme-3M): 0.573 µM (active)
GI50 (NCI/ADR-RES): 2.68 µM (inactive)
GI50 (MDA-N): 2.73 µM (inactive)
GI50 (SK-MEL-28): 0.724 µM (active)
GI50 (HT-29): 1.31 µM (inactive)
GI50 (MCF7): 2.33 µM (inactive)
GI50 (SW-620): 0.426 µM (active)
GI50 (OVCAR-5): 5.83 µM (inactive)
GI50 (U-251): 12.5 µM (inactive)
GI50 (SF-539): 2.82 µM (inactive)
GI50 (M14): 3.01 µM (inactive)
GI50 (SF-268): 2.12 µM (inactive)
GI50 (A549): 19 µM (inactive)
GI50 (NCI-H226): 17.6 µM (inactive)
GI50 (HCT-116): 1.7 µM (inactive)
GI50 (NCI-H522): 0.124 µM (active)
GI50 (EKVX): 3.1 µM (inactive)
GI50 (HCC 2998): 6.34 µM (inactive)

CCN(CC)c1ccc(/C=C(\C#N)c2nc(N)nc(N3N=C(C)CC3(C)C)n2)cc1
GI50 (T47D): 17.2 µM (inactive)
GI50 (COLO 205): 29.6 µM (inactive)
GI50 (PC-3): 37.2 µM (inactive)
GI50 (A498): 16.2 µM (inactive)
GI50 (SK-OV-3): 6.61 µM (inactive)
GI50 (HL-60): 43.7 µM (inactive)
GI50 (RPMI-8226): 32 µM (inactive)
GI50 (RXF 393): 8.93 µM (inactive)
GI50 (SNB-75): 10 µM (inactive)
GI50 (IGROV-1): 7.82 µM (inactive)
GI50 (HOP-62): 11.1 µM (inactive)
GI50 (786-0): 13.4 µM (inactive)
GI50 (SK-MEL-5): 21.6 µM (inactive)
GI50 (NCI-H23): 27.5 µM (inactive)
GI50 (SK-MEL-2): 15.6 µM (inactive)
GI50 (HOP-92): 6.97 µM (inactive)
GI50 (OVCAR-8): 10.6 µM (inactive)
GI50 (DU-145): 9.64 µM (inactive)
GI50 (UACC-257): 45.2 µM (inactive)
GI50 (CAKI-1): 15.1 µM (inactive)
GI50 (CCRF-CEM): 19.1 µM (inactive)
GI50 (MOLT-4): 10.7 µM (inactive)
GI50 (SNB-19): 17.9 µM (inactive)
GI50 (SR): 12.2 µM (inactive)
GI50 (SF-295): 16.6 µM (inactive)
GI50 (MDA-MB-435): 21.1 µM (inactive)
GI50 (K562): > 38.1 µM (inactive)
GI50 (SN12C): 27.3 µM (inactive)
GI50 (BT-549): 47.4 µM (inactive)
GI50 (KM12): 13.1 µM (inactive)
GI50 (OVCAR-4): 11.6 µM (inactive)
GI50 (UACC-62): 30.3 µM (inactive)
GI50 (UO-31): 22.4 µM (inactive)
GI50 (TK-10): 14.8 µM (inactive)
GI50 (LOX IMVI): 14 µM (inactive)
GI50 (Hs-578T): 2.4 µM (inactive)
GI50 (ACHN): 14.7 µM (inactive)
GI50 (NCI-H460): 18.3 µM (inactive)
GI50 (MDA-MB-231): 13.6 µM (inactive)
GI50 (OVCAR-3): 17.5 µM (inactive)
GI50 (HCT-15): > 59.3 µM
GI50 (Malme-3M): 18.2 µM (inactive)
GI50 (NCI/ADR-RES): 15.8 µM (inactive)
GI50 (MDA-N): 24.1 µM (inactive)
GI50 (SK-MEL-28): 36.1 µM (inactive)
GI50 (HT-29): 18.8 µM (inactive)
GI50 (MCF7): 32 µM (inactive)
GI50 (SW-620): 55.6 µM (inactive)
GI50 (OVCAR-5): 26.7 µM (inactive)
GI50 (U-251): 13.3 µM (inactive)
GI50 (SF-539): 6.89 µM (inactive)
GI50 (M14): 19.2 µM (inactive)
GI50 (SF-268): 15 µM (inactive)
GI50 (A549): 16.2 µM (inactive)
GI50 (NCI-H226): 2.9 µM (inactive)
GI50 (HCT-116): 15.9 µM (inactive)
GI50 (NCI-H522): 16.9 µM (inactive)
GI50 (EKVX): 24.4 µM (inactive)
GI50 (HCC 2998): 30.1 µM (inactive)
